Inhibition and remaining activity data for 1 compound are collected here from patent US9492471B2, “Methods of treating a disease or disorder associated with Bruton'S Tyrosine Kinase” (Celgene Avilomics Research, Inc., priority 2013, dated 2016).

Where two headings read alike, the source gives them in different places.

Common to all, as to assay: HotSpot kinase profiling
Holding throughout (format): biochemical

For test [1], the target named is T1, Aurora A (Homo sapiens, UniProt O14965).
T1 construct: purchased Reaction Biology Corp
T1 sequence (O14965 1-403): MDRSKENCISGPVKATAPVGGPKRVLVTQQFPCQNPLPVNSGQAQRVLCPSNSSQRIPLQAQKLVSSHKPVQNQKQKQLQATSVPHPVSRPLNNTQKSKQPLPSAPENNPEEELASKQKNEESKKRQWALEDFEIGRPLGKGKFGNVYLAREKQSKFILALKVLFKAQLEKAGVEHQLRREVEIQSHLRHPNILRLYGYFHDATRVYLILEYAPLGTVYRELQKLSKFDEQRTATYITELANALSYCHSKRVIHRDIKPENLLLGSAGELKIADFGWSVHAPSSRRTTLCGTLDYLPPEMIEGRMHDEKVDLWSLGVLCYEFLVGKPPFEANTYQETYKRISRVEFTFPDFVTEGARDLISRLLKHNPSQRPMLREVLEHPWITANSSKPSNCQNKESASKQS
In short, it runs like this: (§1)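 Radio-isotope P81 filtration format. Substrate + required cofactors in reaction buffer, kinase added, 2 h RT. Stop, wash with 0.1% phosphoric acid, detect. % inhibition vs DMSO; mean of duplicates where repeated.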

Test [2] concerns the target T2, MST2/STK3 (Homo sapiens, UniProt Q13188).
T2 construct: purchased Reaction Biology Corp
T2 sequence (Q13188 1-491): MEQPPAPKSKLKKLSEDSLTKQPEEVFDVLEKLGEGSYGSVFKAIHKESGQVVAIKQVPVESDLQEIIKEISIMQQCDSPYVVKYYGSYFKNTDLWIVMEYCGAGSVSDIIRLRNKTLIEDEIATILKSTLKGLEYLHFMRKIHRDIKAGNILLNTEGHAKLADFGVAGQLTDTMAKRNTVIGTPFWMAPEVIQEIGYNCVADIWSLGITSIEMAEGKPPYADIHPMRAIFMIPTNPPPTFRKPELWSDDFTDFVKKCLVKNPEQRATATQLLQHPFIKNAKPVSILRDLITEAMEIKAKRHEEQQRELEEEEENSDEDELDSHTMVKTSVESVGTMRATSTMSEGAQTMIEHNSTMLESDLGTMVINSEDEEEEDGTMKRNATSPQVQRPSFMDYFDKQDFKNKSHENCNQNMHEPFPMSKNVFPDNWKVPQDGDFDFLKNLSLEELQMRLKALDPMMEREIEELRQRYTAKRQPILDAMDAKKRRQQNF
In short, it runs like this:
as §1

In test [3] the target is T3, PKCmu/PRKD1 (Homo sapiens, UniProt Q15139).
T3 construct: purchased Reaction Biology Corp
T3 sequence (Q15139 1-912): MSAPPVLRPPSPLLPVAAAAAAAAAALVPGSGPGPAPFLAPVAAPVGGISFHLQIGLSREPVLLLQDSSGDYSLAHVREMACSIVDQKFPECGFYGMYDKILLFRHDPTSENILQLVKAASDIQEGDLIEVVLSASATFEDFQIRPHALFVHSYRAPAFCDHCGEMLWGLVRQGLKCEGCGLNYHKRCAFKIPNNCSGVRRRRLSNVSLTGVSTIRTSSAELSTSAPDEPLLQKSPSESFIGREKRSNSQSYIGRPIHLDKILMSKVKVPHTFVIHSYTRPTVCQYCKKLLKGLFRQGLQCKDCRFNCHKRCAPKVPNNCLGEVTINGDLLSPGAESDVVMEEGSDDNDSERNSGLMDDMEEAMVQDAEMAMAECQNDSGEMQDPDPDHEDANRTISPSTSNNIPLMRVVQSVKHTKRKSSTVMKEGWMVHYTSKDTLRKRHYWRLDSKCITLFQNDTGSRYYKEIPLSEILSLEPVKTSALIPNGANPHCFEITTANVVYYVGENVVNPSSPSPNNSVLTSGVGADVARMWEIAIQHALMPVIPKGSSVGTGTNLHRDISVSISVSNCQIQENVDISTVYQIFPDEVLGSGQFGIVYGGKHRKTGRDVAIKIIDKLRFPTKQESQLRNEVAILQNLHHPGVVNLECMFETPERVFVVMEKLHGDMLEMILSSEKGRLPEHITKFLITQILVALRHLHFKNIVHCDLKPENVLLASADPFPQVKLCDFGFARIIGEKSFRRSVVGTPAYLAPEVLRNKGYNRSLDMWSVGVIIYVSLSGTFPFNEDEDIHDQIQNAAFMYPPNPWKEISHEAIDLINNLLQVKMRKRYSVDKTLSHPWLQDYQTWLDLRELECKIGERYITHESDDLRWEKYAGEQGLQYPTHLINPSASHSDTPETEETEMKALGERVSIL
A digest of the protocol:
as §1

The target of test [4] is T4, STK38/NDR1 (Homo sapiens, UniProt Q15208).
T4 construct: purchased Reaction Biology Corp
A digest of the protocol:
as §1

[5] abbreviates: read-out: % Enzyme Activity (relative to DMSO controls) Run 1.
Where [6] appears, read: read-out: % Enzyme Activity (relative to DMSO controls) Run 2.

T4 sequence (Q15208 whole entry): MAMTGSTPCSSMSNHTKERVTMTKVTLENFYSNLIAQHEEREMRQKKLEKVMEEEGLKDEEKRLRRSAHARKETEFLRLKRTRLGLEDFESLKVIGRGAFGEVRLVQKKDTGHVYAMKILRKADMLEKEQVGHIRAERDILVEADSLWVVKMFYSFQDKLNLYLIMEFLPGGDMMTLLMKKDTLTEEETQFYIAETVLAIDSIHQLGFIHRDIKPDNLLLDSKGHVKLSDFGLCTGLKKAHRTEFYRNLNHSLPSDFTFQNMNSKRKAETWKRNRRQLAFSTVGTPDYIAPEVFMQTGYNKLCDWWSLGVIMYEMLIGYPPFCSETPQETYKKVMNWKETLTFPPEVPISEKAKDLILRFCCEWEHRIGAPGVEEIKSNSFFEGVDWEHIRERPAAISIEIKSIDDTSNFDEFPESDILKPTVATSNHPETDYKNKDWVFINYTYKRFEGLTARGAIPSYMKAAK

`C=CC(=O)Nc1cccc(Nc2nc(Nc3ccc(OCCOC)c(F)c3)ncc2F)c1` [Compound 2]: the inhibition at 3 µM stood at 88.3% in test [1], 10.1% in test [2], 24.6% in test [3] and 6.79% in test [4]. In addition, the remaining activity at 3 µM was found to be 12.3% in test [1] (setting [5]); 11% in test [1] (setting [6]); 91.1% in test [2] (setting [5]); 88.6% in test [2] (setting [6]); 74.8% in test [3] (setting [5]); 75.8% in test [3] (setting [6]). Moreover, the remaining activity at 3 µM in test [4] (setting [5]) was 92.7%; in test [4] (setting [6]), 93.7%.

One may read the inhibition as the drop in the measured response relative to a control, in per cent. Read a high inhibition as strong suppression.
